The numbers were not newly measured in publication PMC13379419, “Integrating high-fidelity hiPSC-cardiomyocytes with AI-driven modeling for enhanced proarrhythmic risk assessment” (Archives of Toxicology, 2026), which cites them from elsewhere.

Details of this series: method as in none printed. To be noted: clinical maximum plasma concentration.

As usually defined, the Cmax is the highest concentration seen after dosing. Turning to `C=C[C@H]1C[N@@]2CC[C@H]1C[C@@H]2[C@@H](O)c1ccnc2ccc(OC)cc12` [Quinidine], the Cmax was 3000 nM.
